The record followed here is patent publication USRE38792E1, “Modified bacterial cellulose” (Ajinomoto Co., Ltd., priority 1996, dated 2005).

For test [1], the system named is Acetobacter pasteurianus FERM BP-4176. The test can be described thus: Shape/length of cellulose-producing bacterium by optical microscope. The test is classed as cell-based. How it is done:
(§1) Seed culture was carried out by placing 20 ml of the above culture medium in a 100 ml flask with baffle, inoculating Acetobacter pasteurianus FERM BP-4176, and then culturing at 25° C. for 3 days with stirring at 200 rpm. The culture medium was crushed by a blender, and added to a main culture medium having the above composition in a concentration of 2% seed culture.
(§2) The main culture was carried out by static culture at 25° C. During the culture, culture solution and bacterial cellulose were withdrawn, and the morphology of bacteria was observed by an optical microscope, an electron microscope and an atomic force microscope.
(§3) Six main culture media were used, and nalidixic acid (NA) was added thereto in a concentration of 0.01 mM, 0.05 mM, 0.1 mM, 0.2 mM or 1.0 mM except one medium to which NA was not added.
Acetobacter pasteurianus FERM BP-4176 was cultured in static culture, and the culture solution and bacterial cellulose were withdrawn, and the shape of bacteria was observed by the optical microscope, the electron microscope and the atomic force microscope, similar to Example 1, except that chloramphenicol was used instead of nalidixic acid.
That is, six main culture media having the aforementioned composition were used, and chloramphenicol (CP) was added thereto in a concentration of 0.1 mM, 0.2 mM, 0.3 mM, 0.5 mM or 1.0 mM except one medium to which CP was not added.
Acetobacter pasteurianus FERM BP-4176 was cultured in static culture, and the culture solution and bacterial cellulose were withdrawn, and the form of bacteria was observed by the optical microscope, the electron microscope and the atomic force microscope, similar to Example 1, except that chloramphenicol was used instead of nalidixic acid.
That is, four main culture media having the aforementioned composition were used, and dithiothreitol (DTT) was added thereto in a concentration of 0.5 mM, 1.0 mM or 2.0 mM except one medium to which DTT was not added.
Acetobacter pasteurianus FERM BP-4176 was cultured in agitation culture at 180 rpm instead of static culture, and the culture solution and bacterial cellulose were withdrawn, and the shape of bacteria was observed by the optical microscope, the electro microscope and the atomic force microscope, similar to Example 1.
That is, […] main culture media having the aforementioned composition were used, and nalidixic acid (NA) was added thereto in a concentration of 0.10 mM, or 0.20 mM, except one medium to which NA was not added.

For test [2] the test system is unchanged. The test can be described thus: Production of bacterial cellulose in static culture. As to conditions: NA 0.01 to 1.0 mM. The class given is cell-based. The protocol: The culture medium used was composed of 50.0 g/l sucrose, 5.0 g/l “Total Amino Acid” (Ajinomoto Co., Inc.), 0.2 g/l phytic acid, 2.4 g/l magnesium sulfate and 1.0 g/l ammonium sulfate (pH 5.0).
as §1, §2, §3

Turning to `O[C@H](CS)[C@H](O)CS` (racemic) [DTT, dithiothreitol], the “length of the bacterium as fraction of the bacteria cultured in no DTT medium” value in test [1] (1.0 mM DTT, static culture 2 days) is given as “⅓ to ½”. In addition, the “change of length of the cellulose-producing bacterium with increasing concentration” value in test [1] (static culture) is “decreased”.

In the case of `O=C(N[C@H](CO)[C@H](O)c1ccc([N+](=O)[O-])cc1)C(Cl)Cl` [CP, chloramphenicol], in test [1] (CP 0.1 to 1.0 mM, static culture), the “length of the cellulose-producing bacterium, up to, relative to bacteria cultured in no CP medium” value fell in the range of 8 to 12 times. In addition, the “change of length of the cellulose-producing bacterium with increasing concentration” value in test [1] (static culture) is recorded as “increased”.

Turning to `CCn1cc(C(=O)O)c(=O)c2ccc(C)nc21` [NA, nalidixic acid], in test [2], the “production of bacterial cellulose with increasing NA concentration” value is “inhibited”. For the same compound, the “lengthening of bacterium compared with no addition of NA” value in test [1] (0.1 mM NA, static culture 2 days) was in the range of 2 to 4 times. Further, the “change of length of the cellulose-producing bacteria” value in test [1] (agitation culture 180 rpm, 0.10 or 0.20 mM NA) is listed as “increased”.
